Measured values published in PubChem BioAssay (NCI).
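Step 1: Grow cells in 96-well plates. Step 2: Expose to compound for 48 hours at 5 concentrations. Step 3: Interpolate endpoints linearly; if unreached, use highest concentration. The concentration for 50% growth inhibition is given as GI50. At the TGI there is no net growth.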

What was measured:
Test in all cases: NCI-60 cell line screen, 48 h
MDA-N = test system: MDA-N
DU-145 prostate = test system: DU-145 prostate
U251 CNS = test system: U251 CNS
HT29 colon = test system: HT29 colon
HCT-15 colon = test system: HCT-15 colon
M14 melanoma = test system: M14 melanoma
OVCAR-3 ovarian = test system: OVCAR-3 ovarian
A498 renal = test system: A498 renal
HOP-62 NSCLC = test system: HOP-62 NSCLC
PC-3 prostate = test system: PC-3 prostate
SN12C renal = test system: SN12C renal
KM12 colon = test system: KM12 colon
HCC-2998 colon = test system: HCC-2998 colon
SF-539 CNS = test system: SF-539 CNS
OVCAR-5 ovarian = test system: OVCAR-5 ovarian
HCT-116 colon = test system: HCT-116 colon
RPMI-8226 leukemia = test system: RPMI-8226 leukemia
UACC-62 melanoma = test system: UACC-62 melanoma
MCF7 breast = test system: MCF7 breast
SK-OV-3 ovarian = test system: SK-OV-3 ovarian
NCI-H522 lung = test system: NCI-H522 lung
CAKI-1 renal = test system: CAKI-1 renal
HOP-92 NSCLC = test system: HOP-92 NSCLC
OVCAR-8 ovarian = test system: OVCAR-8 ovarian
RXF 393 renal = test system: RXF 393 renal
SR leukemia = test system: SR leukemia
ACHN renal = test system: ACHN renal
SK-MEL-2 melanoma = test system: SK-MEL-2 melanoma
MALME-3M melanoma = test system: MALME-3M melanoma
NCI/ADR-RES ovarian = test system: NCI/ADR-RES ovarian
MDA-MB-435 = test system: MDA-MB-435
K-562 leukemia = test system: K-562 leukemia
A549 NSCLC = test system: A549 NSCLC
SF-295 CNS = test system: SF-295 CNS
COLO 205 colon = test system: COLO 205 colon
OVCAR-4 ovarian = test system: OVCAR-4 ovarian
UO-31 renal = test system: UO-31 renal
LOX IMVI melanoma = test system: LOX IMVI melanoma
SNB-75 CNS = test system: SNB-75 CNS
IGROV1 ovarian = test system: IGROV1 ovarian
MDA-MB-231 breast = test system: MDA-MB-231 breast
MOLT-4 leukemia = test system: MOLT-4 leukemia
SK-MEL-5 melanoma = test system: SK-MEL-5 melanoma
EKVX NSCLC = test system: EKVX NSCLC
HL-60(TB) leukemia = test system: HL-60(TB) leukemia
NCI-H23 lung = test system: NCI-H23 lung
CCRF-CEM leukemia = test system: CCRF-CEM leukemia
NCI-H226 lung = test system: NCI-H226 lung
TK-10 renal = test system: TK-10 renal
NCI-H460 lung = test system: NCI-H460 lung
SW-620 colon = test system: SW-620 colon
786-0 renal = test system: 786-0 renal
UACC-257 melanoma = test system: UACC-257 melanoma
SK-MEL-28 melanoma = test system: SK-MEL-28 melanoma
T-47D breast = test system: T-47D breast
SF-268 CNS = test system: SF-268 CNS
HS 578T breast = test system: HS 578T breast
SNB-19 CNS = test system: SNB-19 CNS
BT-549 breast = test system: BT-549 breast

## COc1ccc2c(ccc3c(C(=O)NCCN(C)CCNC(=O)c4cn(C)c5c4ccc4cc(OC)ccc45)cn(C)c32)c1
MDA-N
  TGI: 2910 nM
DU-145 prostate
  TGI: 3.32 µM
U251 CNS
  TGI: > 100 µM
HT29 colon
  TGI: 2.7 µM
HCT-15 colon
  TGI: 2.52 µM
M14 melanoma
  TGI: 3 µM
OVCAR-3 ovarian
  TGI: 2.83 µM
A498 renal
  TGI: > 100 µM
HOP-62 NSCLC
  TGI: 2750 nM
PC-3 prostate
  TGI: 2.84 µM
SN12C renal
  TGI: 2.82 µM
KM12 colon
  TGI: 3.02 µM
HCC-2998 colon
  TGI: 2.79 µM

## O=CC1=C(C(=O)OC(c2ccccc2)c2ccccc2)N2C(=O)[C@@H](NC(=O)Cc3cccs3)[C@H]2SC1
SF-539 CNS
  TGI: > 100 µM
OVCAR-5 ovarian
  TGI: > 100 µM
HCT-116 colon
  TGI: > 100 µM
RPMI-8226 leukemia
  TGI: > 100 µM
MDA-N
  TGI: > 100000 nM
UACC-62 melanoma
  TGI: > 100 µM
MCF7 breast
  TGI: > 100 µM
SK-OV-3 ovarian
  TGI: > 100 µM
NCI-H522 lung
  TGI: > 100 µM
CAKI-1 renal
  TGI: > 100 µM
HOP-92 NSCLC
  TGI: > 100 µM
OVCAR-8 ovarian
  TGI: > 100 µM
RXF 393 renal
  TGI: > 100 µM
DU-145 prostate
  TGI: > 100 µM
SR leukemia
  TGI: > 100 µM
ACHN renal
  TGI: > 100 µM
SK-MEL-2 melanoma
  TGI: > 100 µM
U251 CNS
  TGI: > 100 µM
MALME-3M melanoma
  TGI: > 100 µM
NCI/ADR-RES ovarian
  TGI: > 100 µM
MDA-MB-435
  TGI: > 100 µM
K-562 leukemia
  TGI: > 100 µM
A549 NSCLC
  TGI: > 100 µM
SF-295 CNS
  TGI: > 100 µM
COLO 205 colon
  TGI: > 100 µM
OVCAR-4 ovarian
  TGI: > 100 µM
UO-31 renal
  TGI: > 100 µM
LOX IMVI melanoma
  TGI: > 100 µM
SNB-75 CNS
  TGI: > 100 µM
HCT-15 colon
  TGI: > 100 µM
M14 melanoma
  TGI: > 100 µM
IGROV1 ovarian
  TGI: > 100 µM
MDA-MB-231 breast
  TGI: > 100 µM
MOLT-4 leukemia
  TGI: > 100 µM
SK-MEL-5 melanoma
  TGI: > 100 µM
OVCAR-3 ovarian
  TGI: > 100 µM
EKVX NSCLC
  TGI: > 100 µM
HL-60(TB) leukemia
  TGI: > 100 µM
A498 renal
  TGI: > 100 µM
NCI-H23 lung
  TGI: > 100 µM
CCRF-CEM leukemia
  TGI: > 100 µM
PC-3 prostate
  TGI: > 100 µM
NCI-H226 lung
  TGI: > 100 µM
SN12C renal
  TGI: > 100 µM
TK-10 renal
  TGI: > 100 µM
NCI-H460 lung
  TGI: > 100 µM
KM12 colon
  TGI: > 100 µM
SW-620 colon
  TGI: > 100 µM
HCC-2998 colon
  TGI: > 100 µM
786-0 renal
  TGI: > 100 µM
UACC-257 melanoma
  TGI: > 100 µM

## O=C(Nc1cccc(Cl)c1)Nc1nccs1
SF-539 CNS
  GI50: 20.6 µM
  TGI: 61.6 µM
OVCAR-5 ovarian
  GI50: 34.8 µM
  TGI: > 100 µM
HCT-116 colon
  GI50: 26.8 µM
  TGI: > 100 µM
RPMI-8226 leukemia
  GI50: 26 µM
  TGI: 79.3 µM
UACC-62 melanoma
  GI50: 20.4 µM
  TGI: 57.4 µM
SK-MEL-28 melanoma
  GI50: 31.8 µM
  TGI: > 100 µM
MCF7 breast
  GI50: 7.97 µM
  TGI: > 100 µM
SK-OV-3 ovarian
  GI50: 20.8 µM
  TGI: 63.9 µM
T-47D breast
  GI50: 12.7 µM
  TGI: 78 µM
NCI-H522 lung
  GI50: 13.8 µM
  TGI: 39.9 µM
CAKI-1 renal
  GI50: 15.6 µM
  TGI: 43.5 µM
HOP-92 NSCLC
  GI50: 23.2 µM
  TGI: 65 µM
OVCAR-8 ovarian
  GI50: 25.1 µM
  TGI: 84.8 µM
RXF 393 renal
  GI50: 22.6 µM
  TGI: 49.4 µM
DU-145 prostate
  GI50: 24.1 µM
  TGI: 65.2 µM
SR leukemia
  GI50: 13.6 µM
  TGI: 46.7 µM
ACHN renal
  GI50: 30.5 µM
  TGI: > 100 µM
SK-MEL-2 melanoma
  GI50: 24.3 µM
  TGI: 52.1 µM
U251 CNS
  GI50: 18.2 µM
  TGI: 50.7 µM
MALME-3M melanoma
  GI50: 22.7 µM
  TGI: 64.7 µM
NCI/ADR-RES ovarian
  GI50: 16.6 µM
  TGI: 58.9 µM
MDA-MB-435
  GI50: 4 µM
  TGI: 27.2 µM
SF-268 CNS
  GI50: 30 µM
  TGI: > 100 µM
K-562 leukemia
  GI50: 20.3 µM
  TGI: > 100 µM
A549 NSCLC
  GI50: 26.5 µM
  TGI: > 100 µM
HT29 colon
  GI50: 19.7 µM
  TGI: 46.6 µM
SF-295 CNS
  GI50: 15.8 µM
  TGI: 39.5 µM
COLO 205 colon
  GI50: 16 µM
  TGI: 32.1 µM
OVCAR-4 ovarian
  GI50: 27.5 µM
  TGI: > 100 µM
UO-31 renal
  GI50: 17.7 µM
  TGI: 53.6 µM
LOX IMVI melanoma
  GI50: 26.9 µM
  TGI: > 100 µM
SNB-75 CNS
  GI50: 20 µM
  TGI: 56.1 µM
HCT-15 colon
  GI50: 20.5 µM
  TGI: > 100 µM
M14 melanoma
  GI50: 30.2 µM
  TGI: > 100 µM
IGROV1 ovarian
  GI50: 16.4 µM
  TGI: 70.7 µM
HS 578T breast
  GI50: 15.3 µM
  TGI: 43.6 µM
SNB-19 CNS
  GI50: 36.6 µM
  TGI: > 100 µM
MDA-MB-231 breast
  GI50: 18 µM
  TGI: 41.8 µM
MOLT-4 leukemia
  GI50: 21.4 µM
  TGI: 82 µM
SK-MEL-5 melanoma
  GI50: 15.2 µM
  TGI: 30.6 µM
OVCAR-3 ovarian
  GI50: 20.2 µM
  TGI: 53.6 µM
EKVX NSCLC
  GI50: 19.8 µM
  TGI: 69.2 µM
HL-60(TB) leukemia
  GI50: 28.1 µM
  TGI: 89.2 µM
A498 renal
  GI50: 12.8 µM
  TGI: 47.7 µM
HOP-62 NSCLC
  GI50: 25.3 µM
  TGI: > 100000 nM
NCI-H23 lung
  GI50: 19.7 µM
  TGI: 60.5 µM
CCRF-CEM leukemia
  GI50: 27 µM
  TGI: > 100 µM
PC-3 prostate
  GI50: 24.6 µM
  TGI: 94.8 µM
NCI-H226 lung
  GI50: 38.7 µM
  TGI: > 100 µM
BT-549 breast
  GI50: 31.6 µM
  TGI: > 100 µM
SN12C renal
  GI50: 37.1 µM
  TGI: > 100 µM
TK-10 renal
  GI50: 25.8 µM
  TGI: 60 µM
NCI-H460 lung
  GI50: 17.1 µM
  TGI: 42.4 µM
KM12 colon
  GI50: 8.5 µM
  TGI: 37.5 µM
SW-620 colon
  GI50: 26.6 µM
  TGI: > 100 µM
HCC-2998 colon
  GI50: 21.3 µM
  TGI: 51.2 µM
786-0 renal
  GI50: 26.6 µM
  TGI: 63 µM
UACC-257 melanoma
  GI50: 22.4 µM
  TGI: 61.8 µM
